Measured values taken from patent US20230382924A1, “MODULATORS OF CYSTIC FIBROSIS TRANSMEMBRANE CONDUCTANCE REGULATOR” (VERTEX PHARMACEUTICALS INCORPORATED, priority 2020, published 2023).
Like-named read-outs stand apart in the source and are kept apart here.

Target: CFTR (Homo sapiens, UniProt P13569)
Test: Membrane Potential Dye, Enteroid Assay A
Assay type: cell-based
Settings: for EC50: read-out: Ent. A EC50
Method: Base medium (ADF+++) consisted of Advanced DMEM/Ham's F12, 2 mM Glutamax, 10 mM HEPES, […] penicillin/streptomycin.
Bath 1 Buffer consisted of 1 mM MgCl2, 160 mM NaCl, 4.5 mM KCl, 10 mM HEPES, 10 mM Glucose, 2 mM CaCl2).
Chloride Free Buffer consisted of 1 mM Magnesium Gluconate, 2 mM Calcium Gluconate, 4.5 mM Potassium Gluconate, 160 mM Sodium Gluconate, 10 mM HEPES, 10 mM Glucose.
Bath 1 Dye Solution consisted of Bath 1 Buffer, 0.04% Pluronic F127, 20 μM Methyl Oxonol, 30 μM CaCCinh-A01, 30 μM Chicago Sky Blue.
Chloride Free Dye Solution consisted of Chloride Free Buffer, 0.04% Pluronic F127, 20 μM Methyl Oxonol, 30 μM CaCCinh-A01, 30 μM Chicago Sky Blue.
3. Enteroid Cell Harvesting and Seeding
Cells were recovered in cell recovery solution, collected by centrifugation at 650 rpm for 5 min at 4° C., resuspended in TryPLE and incubated for 5 min at 37° C. Cells were then collected by centrifugation at 650 rpm for 5 min at 4° C. and resuspended in IEMM containing 10 μM ROCK inhibitor (RI).
4. Membrane Potential Dye, Enteroid Assay A
Briefly, cells were washed 5 times in Bath 1 Buffer. Bath 1 Dye Solution was added, and the cells were incubated for 25 min at room temperature. Following dye incubation, cells were washed 3 times in Chloride Free Dye Solution. Chloride transport was initiated by addition of Chloride Free Dye Stimulation Solution and the fluorescence signal was read for 15 min. […] Chloride transport was then expressed as a percentage of the chloride transport following treatment with 3 μM N-[(6-amino-2-pyridyl)sulfonyl]-6-(3-fluoro-5-isobutoxy-phenyl)-2-[(4S)-2,2,4-trimethylpyrrolidin-1-yl]pyridine-3-carboxamide, 3 μM (R)-1-(2,2-difluorobenzo[d][1,3]dioxol-5-yl)-N-(1-(2,3-dihydroxypropyl)-6-fluoro-2-(1-hydroxy-2-methylpropan-2-yl)-1H-indol-5-yl)cyclopropanecarboxamide and 300 nM acute N-[2,4-bis(1,1-dimethylethyl)-5-hydroxyphenyl]-1,4-dihydro-4-oxoquinoline-3-carboxamide triple combination control (% Activity).

CFTR, sequence (P13569 with tags, fused parts or gaps DEL508-508): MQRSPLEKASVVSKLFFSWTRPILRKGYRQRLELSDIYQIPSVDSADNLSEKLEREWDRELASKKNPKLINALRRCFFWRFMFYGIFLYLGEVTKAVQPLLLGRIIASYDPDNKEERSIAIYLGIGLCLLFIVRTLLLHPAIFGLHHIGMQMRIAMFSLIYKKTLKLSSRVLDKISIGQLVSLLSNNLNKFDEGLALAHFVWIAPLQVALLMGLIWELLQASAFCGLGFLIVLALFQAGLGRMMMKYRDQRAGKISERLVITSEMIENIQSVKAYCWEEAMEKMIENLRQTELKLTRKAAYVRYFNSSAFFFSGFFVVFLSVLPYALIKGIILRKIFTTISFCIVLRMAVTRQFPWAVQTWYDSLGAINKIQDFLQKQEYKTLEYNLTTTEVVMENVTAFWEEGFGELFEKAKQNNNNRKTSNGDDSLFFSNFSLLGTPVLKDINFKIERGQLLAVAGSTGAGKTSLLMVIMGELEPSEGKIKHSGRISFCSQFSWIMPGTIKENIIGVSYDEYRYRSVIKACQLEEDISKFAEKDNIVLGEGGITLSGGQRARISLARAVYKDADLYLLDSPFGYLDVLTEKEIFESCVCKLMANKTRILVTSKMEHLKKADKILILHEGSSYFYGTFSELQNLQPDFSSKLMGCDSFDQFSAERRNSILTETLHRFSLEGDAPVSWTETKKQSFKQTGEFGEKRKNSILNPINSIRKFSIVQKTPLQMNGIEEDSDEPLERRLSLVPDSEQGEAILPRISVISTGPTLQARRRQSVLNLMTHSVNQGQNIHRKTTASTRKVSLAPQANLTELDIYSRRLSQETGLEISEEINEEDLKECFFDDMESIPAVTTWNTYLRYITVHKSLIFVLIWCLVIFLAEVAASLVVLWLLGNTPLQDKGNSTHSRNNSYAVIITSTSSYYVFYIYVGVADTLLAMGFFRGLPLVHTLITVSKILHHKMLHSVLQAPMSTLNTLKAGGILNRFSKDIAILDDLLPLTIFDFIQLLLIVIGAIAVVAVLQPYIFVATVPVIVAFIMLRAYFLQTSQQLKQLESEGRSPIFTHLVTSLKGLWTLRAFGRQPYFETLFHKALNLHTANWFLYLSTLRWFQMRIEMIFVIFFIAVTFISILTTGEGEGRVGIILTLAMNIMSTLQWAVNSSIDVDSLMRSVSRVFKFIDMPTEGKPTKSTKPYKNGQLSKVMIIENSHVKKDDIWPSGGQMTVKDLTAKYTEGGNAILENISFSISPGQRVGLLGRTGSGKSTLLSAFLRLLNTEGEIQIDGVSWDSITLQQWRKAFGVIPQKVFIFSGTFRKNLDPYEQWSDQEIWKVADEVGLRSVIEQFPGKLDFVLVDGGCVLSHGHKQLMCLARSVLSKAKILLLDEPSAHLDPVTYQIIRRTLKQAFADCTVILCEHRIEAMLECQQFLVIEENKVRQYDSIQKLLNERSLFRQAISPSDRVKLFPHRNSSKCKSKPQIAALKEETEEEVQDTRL

Structure (SMILES)	EC50 (Table 8)	EC50 (Enteroid Assay A)	Ent. A Max Activity (Table 8)	also measured
Cc1cccc(C)c1-c1cc2nc(n1)NS(=O)(=O)c1cccc(c1)C(=O)NCC(CC(C)C)O2 (centres unmarked) [Compound 255]	1 to 3 µM	–	–	–
CC(C)C[C@@H]1COc2cc(-c3ccnn3C(C)C)nc(n2)NS(=O)(=O)c2cccc(c2)C(=O)N1 [Compound 341]	–	–	–	Ent. A Max Activity (Enteroid Assay A): ++ (++ is 30-60%)
Cc1cccc(C)c1-c1cc2nc(n1)NS(=O)(=O)c1cccc(c1)C(=O)NCC1(CCN(Cc3ccccc3)CC1)CO2 [Compound 442]	–	3 to 30 µM	–	–
Cc1cccc(C)c1-c1cc2nc(n1)NS(=O)(=O)c1cccc(c1)C(=O)NCC1(CCN(C[C@H]3COC(C)(C)N3C(=O)OC(C)(C)C)CC1)CO2 [Compound 439]	–	3 to 30 µM	–	Ent. A Max Activity (Enteroid Assay A): ++ (++ is 30-60%)
Cc1cccc(C)c1-c1cc2nc(n1)NS(=O)(=O)c1cccc(c1)C(=O)NC1CC(CN(CCC3(C(F)(F)F)CC3)C1)O2 (centres unmarked) [Compound 194]	–	1 to 3 µM	–	–
CCCC1(CCC)COc2cc(-c3c(C)cccc3C)nc(n2)NS(=O)(=O)c2cccc(c2)C(=O)N1 [Compound 184]	–	–	–	Ent. A Max Activity (Table 9): +++ (+++ is >60%); EC50 (Table 9): < 1 µM
CC(C)C[C@@H]1COc2cc(-c3ccccc3CC(C)(C)C)nc(n2)NS(=O)(=O)c2cccc(c2)C(=O)N1 [Compound 332]	–	< 1 µM	–	Ent. A Max Activity (Enteroid Assay A): ++ (++ is 30-60%)
Cc1cccc(C)c1-c1cc2nc(n1)NS(=O)(=O)c1cccc(c1)C(=O)NC[C@H](c1ccc(C(F)(F)F)cc1)O2 (stereo in doubt) [Compound 402]	3 to 30 µM	–	+ (+ is <30%)	–
Cc1cccc(C)c1-c1cc2nc(n1)NS(=O)(=O)c1cccc(c1)C(=O)NC[C@@H](c1ccc(C(C)(F)F)cc1)O2 (stereo in doubt) [Compound 400]	1 to 3 µM	–	+ (+ is <30%)	–
Cc1cc(C2CNC(=O)c3cccc(c3)S(=O)(=O)Nc3nc(cc(-c4c(C)cccc4C)n3)O2)cc2c1OC(C)(C)C2 (centres unmarked) [Compound 119]	–	–	+ (+ is <30%)	–
Cc1cccc(C)c1-c1cc2nc(n1)NS(=O)(=O)[C@H]1CC[C@H]1C(=O)N[C@H](CC(C)C)CO2 (single isomer, unassigned) [Compound 71]	–	–	–	Ent. A Max Activity (Table 9): + (+ is <30%)
Cc1cccc(C)c1-c1cc2nc(n1)NS(=O)(=O)c1cccc(c1)C(=O)NCC(Cc1ccc(C(C)(C)C)cc1)O2 (centres unmarked) [Compound 243]	< 1 µM	–	+++ (+++ is >60%)	–
COC(=O)c1cc(CN2CCC3(CC2)CNC(=O)c2cccc(c2)S(=O)(=O)Nc2nc(cc(-c4c(C)cccc4C)n2)OC3)ccc1F [Compound 437]	–	3 to 30 µM	–	Ent. A Max Activity (Enteroid Assay A): ++ (++ is 30-60%)
Cc1cccc(C)c1-c1cc2nc(n1)NS(=O)(=O)c1cccc(c1)C(=O)NCC1(CCN(CC3CCCCC3)CC1)CO2 [Compound 85, 1′-(Cyclohexylmethyl)-6-(2,6-dimethylphenyl)-2,2-dioxo-spiro[9-oxa-2λ^6-thia-3,5,13,20-tetrazatricyclo[13.3.1.14,8]icosa-1(19),4(20),5,7,15,17-hexaene-11,4′-piperidine]-14-one]	–	3 to 30 µM	–	Ent. A Max Activity (Enteroid Assay A): ++ (++ is 30-60%)
Cc1cccc(C)c1-c1cc2nc(n1)NS(=O)(=O)c1ccccc1C(=O)N[C@H](C)[C@@H](c1ccc(C(C)(C)C)cc1)O2 [Compound 282]	–	–	–	Ent. A Max Activity (Table 9): + (+ is <30%)
Cc1cccc(C2CNC(=O)c3cccc(c3)S(=O)(=O)Nc3nc(cc(-c4c(C)cccc4C)n3)O2)c1 (centres unmarked) [Compound 404]	< 1 µM	–	+++ (+++ is >60%)	–
CC(C)C[C@@H]1COc2cc(-c3ccccc3C3CC3)nc(n2)NS(=O)(=O)c2cccc(c2)C(=O)N1 [Compound 105, (11R)-6-(2-cyclopropylphenyl)-11-(2-methylpropyl)-9-oxa-2λ^6-thia-3,5,12,19-tetraazatricyclo[12.3.1.14,8]nonadeca-1(17),4(19),5,7,14(18),15-hexaene-2,2,13-trione]	–	< 1 µM	–	Ent. A Max Activity (Enteroid Assay A): +++ (+++ is >600%)
Cc1ccc(C2CNC(=O)c3cccc(c3)S(=O)(=O)Nc3nc(cc(-c4c(C)cccc4C)n3)O2)cc1 (centres unmarked) [Compound 406]	–	–	+ (+ is <30%)	–

Structure (SMILES)	EC50 (Table 8)	EC50 (Enteroid Assay A)	Ent. A Max Activity (Table 8)	also measured
CC(C)C[C@@H]1COc2cc(-c3ccccc3)nc(n2)NS(=O)(=O)c2cccc(c2)C(=O)N1 [Compound 340]	–	3 to 30 µM	–	Ent. A Max Activity (Enteroid Assay A): ++ (++ is 30-60%)
Cc1cccc(C)c1-c1cc2nc(n1)NS(=O)(=O)c1cccc(c1)C(=O)NC1CC(CN(C(=O)OCc3ccccc3)C1)O2 (centres unmarked) [Compound 200]	–	3 to 30 µM	–	Ent. A Max Activity (Enteroid Assay A): ++ (++ is 30-60%)
CCC[C@H]1NC(=O)c2cccc(c2)S(=O)(=O)Nc2nc(cc(-c3c(C)cccc3C)n2)O[C@@H]1c1ccc(C(C)(C)C)cc1 [Compound 227]	–	–	–	Ent. A Max Activity (Table 9): +++ (+++ is >60%); EC50 (Table 9): < 1 µM
Cc1cccc(C)c1-c1cc2nc(n1)NS(=O)(=O)c1cccc(c1)C(=O)NCC(C#CC(C)(C)C)O2 (centres unmarked) [Compound 297]	–	–	–	Ent. A Max Activity (Table 9): ++ (++ is 30-60%); EC50 (Table 9): < 1 µM
Cc1cccc(C)c1-c1cc2nc(n1)NS(=O)(=O)c1cccc(c1)C(=O)NC(C)(C)CO2 [Compound 348]	–	3 to 30 µM	–	Ent. A Max Activity (Enteroid Assay A): +++ (+++ is >600%)
Cc1cccc(C)c1-c1cc2nc(n1)NS(=O)(=O)c1cncc(c1)C(=O)N[C@H](CC(C)C)CO2 [Compound 413]	1 to 3 µM	–	+++ (+++ is >60%)	–
Cc1cccc(C)c1-c1cc2nc(n1)NS(=O)(=O)c1cccc(c1)C(=O)NC(CCC1(C(F)(F)F)CC1)CO2 (centres unmarked) [Compound 92, 6-(2,6-dimethylphenyl)-2,2-dioxo-11-[2-[1-(trifluoromethyl)cyclopropyl]ethyl]-9-oxa-2λ^6-thia-3,5,12,19-tetrazatricyclo[12.3.1.14,8]nonadeca-1(18),4(19),5,7,14,16-hexaen-13-one]	< 1 µM	–	+++ (+++ is >60%)	–
Cc1cccc(C)c1-c1cc2nc(n1)NS(=O)(=O)c1cccc(c1)C(=O)NCC(c1ccc(C(F)(F)F)cc1)O2 (centres unmarked) [Compound 403]	< 1 µM	–	–	–
Cc1cccc(C)c1-c1cc2nc(n1)NS(=O)(=O)c1cccc(c1)C(=O)N[C@@H]1CCN(CCC(C)(C)C)C[C@H]1O2 (single isomer, unassigned) [Compound 89, 5-(3,3-Dimethylbutyl)-20-(2,6-dimethylphenyl)-2-oxa-16λ^6-thia-5,9,17,19,22-pentaazatetracyclo[16.3.1.111,15.03,8]tricosa-1(21),11(23),12,14,18(22),19-hexaene-10,16,16-trione]	–	–	–	Ent. A Max Activity (Table 9): + (+ is <30%)
Cc1cnn(C)c1-c1cc2nc(n1)NS(=O)(=O)c1cccc(c1)C(=O)N[C@H](CC(C)C)CO2 [Compound 179]	–	–	–	Ent. A Max Activity (Table 9): ++ (++ is 30-60%); EC50 (Table 9): 3 to 30 µM
Cc1cccc(C)c1-c1cc2nc(n1)NS(=O)(=O)c1cccc(c1)CN[C@H](CC1CCCCC1)CO2 [Compound 286]	3 to 30 µM	–	+ (+ is <30%)	–
COc1ccc(C)c(-c2cc3nc(n2)NS(=O)(=O)c2cccc(c2)C(=O)N[C@H](CC(C)C)CO3)c1 [Compound 302]	1 to 3 µM	–	+++ (+++ is >60%)	–
Cc1cccc(C)c1-c1cc2nc(n1)NS(=O)(=O)c1cccc(c1)C(=O)NCC(c1cccc(C(C)(C)C)c1)O2 (centres unmarked) [Compound 247]	< 1 µM	–	+++ (+++ is >60%)	–
CC(C)C[C@@H]1COc2cc(-c3ccccc3C(C)C)nc(n2)NS(=O)(=O)c2cccc(c2)C(=O)N1 [Compound 345]	–	< 1 µM	–	Ent. A Max Activity (Enteroid Assay A): +++ (+++ is >600%)
Cc1cccc(C)c1-c1cc2nc(n1)NS(=O)(=O)c1cccc(c1)C(=O)NC1CC(CN(CCC(C)(C)C3CC3)C1)O2 (centres unmarked) [Compound 195]	–	< 1 µM	–	–
Cc1cccc(C)c1-c1cc2nc(n1)NS(=O)(=O)c1cccc(c1)C(=O)N[C@H](CC(C)C)CCO2 [Compound 225]	–	–	–	Ent. A Max Activity (Table 9): +++ (+++ is >60%); EC50 (Table 9): < 1 µM
Cc1cccc(C)c1-c1cc2nc(n1)NS(=O)(=O)c1cccc(c1)C(=O)N[C@@H](C(CC(C)C)c1ccccc1)CO2 (stereo in doubt) [Compound 180]	–	–	–	Ent. A Max Activity (Table 9): ++ (++ is 30-60%); EC50 (Table 9): < 1 µM
